Three molecules from article PMC12615753, “Glutathione as a taste modulator: molecular mechanisms of interaction with umami and sweet taste receptors” (Food Chemistry: Molecular Sciences, 2025) can be followed below.

This assay concerns the target T1, hTAS1R1 Y220A/rTAS1R3 (UniProt Q7RTX1+Q923K1, Y220A).
T1 construct: UniProtKB number Q7RTX1–1); The cDNA coding region of rTAS1R3 was synthesized with optimized-codon usage for human expression; expressed in transfected cells; host or cells: HEK293T/17
T1 sequence (Q7RTX1 21-841 Y220A): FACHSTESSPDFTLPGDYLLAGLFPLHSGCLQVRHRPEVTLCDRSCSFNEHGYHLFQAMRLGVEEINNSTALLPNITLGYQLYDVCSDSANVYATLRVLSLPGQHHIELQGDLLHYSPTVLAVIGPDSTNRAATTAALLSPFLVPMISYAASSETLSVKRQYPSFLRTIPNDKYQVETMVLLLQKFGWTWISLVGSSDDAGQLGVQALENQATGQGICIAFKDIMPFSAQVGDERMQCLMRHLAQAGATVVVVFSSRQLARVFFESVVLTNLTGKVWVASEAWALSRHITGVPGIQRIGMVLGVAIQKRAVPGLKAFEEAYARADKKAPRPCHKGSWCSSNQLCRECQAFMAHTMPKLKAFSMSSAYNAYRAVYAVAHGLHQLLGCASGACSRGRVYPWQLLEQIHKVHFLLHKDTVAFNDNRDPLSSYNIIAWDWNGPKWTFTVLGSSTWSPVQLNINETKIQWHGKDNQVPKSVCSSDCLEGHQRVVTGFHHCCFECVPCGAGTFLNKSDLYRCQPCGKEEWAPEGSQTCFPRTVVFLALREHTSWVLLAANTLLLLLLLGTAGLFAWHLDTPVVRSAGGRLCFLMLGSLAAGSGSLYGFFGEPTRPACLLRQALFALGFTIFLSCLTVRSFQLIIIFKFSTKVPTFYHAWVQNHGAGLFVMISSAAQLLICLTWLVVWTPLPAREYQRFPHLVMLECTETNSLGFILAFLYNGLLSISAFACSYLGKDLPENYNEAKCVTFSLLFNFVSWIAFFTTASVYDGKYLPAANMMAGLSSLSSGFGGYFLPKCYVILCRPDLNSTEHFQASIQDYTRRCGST
T1 sequence (Q923K1 21-858): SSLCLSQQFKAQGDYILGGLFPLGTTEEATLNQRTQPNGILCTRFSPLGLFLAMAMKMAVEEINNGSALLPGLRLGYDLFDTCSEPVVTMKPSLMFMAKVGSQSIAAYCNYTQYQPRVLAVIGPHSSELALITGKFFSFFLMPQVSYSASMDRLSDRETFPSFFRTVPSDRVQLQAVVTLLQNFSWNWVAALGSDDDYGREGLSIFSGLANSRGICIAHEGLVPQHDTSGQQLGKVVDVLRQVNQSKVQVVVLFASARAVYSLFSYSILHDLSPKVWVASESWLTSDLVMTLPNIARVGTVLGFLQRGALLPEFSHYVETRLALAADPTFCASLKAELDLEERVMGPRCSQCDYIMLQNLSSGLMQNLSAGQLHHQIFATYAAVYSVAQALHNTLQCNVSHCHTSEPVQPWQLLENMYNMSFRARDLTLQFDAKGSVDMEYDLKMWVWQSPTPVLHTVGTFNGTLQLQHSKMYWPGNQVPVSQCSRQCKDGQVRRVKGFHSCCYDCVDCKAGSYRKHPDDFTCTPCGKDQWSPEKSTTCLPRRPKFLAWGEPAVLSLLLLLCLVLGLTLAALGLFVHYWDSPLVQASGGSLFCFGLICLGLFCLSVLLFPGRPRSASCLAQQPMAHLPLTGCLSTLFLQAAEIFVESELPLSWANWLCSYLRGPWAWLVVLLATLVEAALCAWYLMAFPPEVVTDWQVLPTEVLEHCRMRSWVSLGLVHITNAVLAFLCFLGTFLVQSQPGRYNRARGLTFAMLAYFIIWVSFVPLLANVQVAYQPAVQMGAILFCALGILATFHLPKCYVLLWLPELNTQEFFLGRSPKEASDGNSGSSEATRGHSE
Description: Calcium assay, hTAS1R1 mutant co-expressed with rTAS1R3. It is filed as cell-based, human, rat. The conditions noted are these: for response to the agonist alone, vs WT: Y220A.

Each structure is given as a SMILES string. A value given as a limit tells only on which side of the number the result lay.

In general, EC50 refers to the concentration giving half of the maximal effect. As to `N[C@@H](CCC(=O)N[C@@H](CS)C(=O)NCC(=O)O)C(=O)O` [GSH, γ-L-glutamyl-L-cysteinyl-glycine], the EC50 was greater than 30 mM and the “response to the agonist alone, vs WT” value is on record as “fully abolished”.
For `N[C@@H](CCC(=O)O)C(=O)O` [L-Glu, L-glutamic acid, reference compound], the “response to the agonist alone, vs WT” value is on record as “completely suppressed”.
For the molecule `CCCC(CCC)NC(=O)c1ccc2c(c1)OCO2` [S807, N-(heptan-4-yl)benzo[d][1,3]dioxole-5-carboxamide, reference compound], the “response to the agonist alone, vs WT” value was “strongly affected”.
